In one experiment the target is BACE-1 (Homo sapiens (Human), UniProt P56817). As to the kind of experiment: BACE-1 Cellular Assay (Aβ in HEK293-APPswe/lon cells). It is filed as cell-based. The note with it: 4 hours. The protocol: Assay 3: BACE-1 Cellular Assay
Certain compounds of the invention, identified in the tables herein, were determined to be potent inhibitors of BACE-1 in the following cellular assay. HEK293 cells are obtained from the American Type Culture Collection (ATCC) and stably transfected with the human amyloid precursor protein cDNA containing the FAD Swedish (enhances β-secretase processing) and London (enhances Aβ42 cleavage) mutations. A HEK293 stable clone with Aβ expression (HEK293-APP^swe/lon) is identified and maintained at 37° C., 5% CO2 in the ATCC-recommended growth media supplemented with hygromycin. […] Aβ40 or Aβ42 are measured in 15 μl of media using a mesoscale based ELISA assay. Full length Aβ40 and Aβ42 peptides are captured with the N-terminal specific biotinylated-WO2 monoclonal antibody and detected using either the ruthenylated Aβ40 C-terminal specific monoclonal antibody, G2-10 or the ruthenylated Aβ42 C-terminal specific monoclonal antibody G2-11 respectively. Raw electrochemiluminescnce values are measured using a Mesoscale Sector Imager plate reader and are plotted as a function of compound concentration. IC50 values are interpolated from the data using nonlinear regression analysis (Sigmoidal dose response fit with variable slope) of the data using GraphPad Prism software.

For the next experiment, the system named is CSF Aβ40. Briefly: Aβ Reduction In Vivo (rat CSF Aβ40). To be noted: male CD IGS rats, 10 mg/kg oral gavage, CSF at 3 hours, change vs vehicle. The protocol: Assay 5: Aβ Reduction In Vivo
The in vivo efficacy and/or potency of BACE inhibitors (test compounds) can be evaluated using a variety of animal models, including mouse, rat, dog, and monkey, and these animals can be wild type, transgenic, or gene knockout animals.
Generally, animals are administered (by oral gavage, intravenous injection, or by other suitable route) a test compound in doses ranging from, for example, 0.1 mg/kg (mg of compound per kg of animal body weight) to 100 mg/kg formulated in vehicles, such as cyclodextrin, phosphate buffer, hydroxypropyl methylcellulose or other suitable vehicles. One to twenty-four hours following the administration of compound, animals are sacrificed, and tissues (for example, brain, cerebrospinal fluid (CSF), and/or plasma) are collected for analysis of Aβ levels and/or test compound concentrations (Dovey et al., 2001, Journal of Neurochemistry, 76, 173-181). Tissue samples are processed appropriately and then analyzed for the presence of Aβ by specific sandwich ELISA assays based on electrochemiluminescence (ECL) technology.
For example, in the following assay for which data are reported below, male CD IGS rats (body weight approximately 120 g, Charles River Laboratories, Kingston, N.Y.) were used to assess lowering of CSF levels of Aβ1-40 (Aβ40) in the presence of compounds of the invention. At time 0, animals were administered by oral gavage a test compound at a dose of 10 mg/kg in 20% hydroxypropyl-β-cyclodextrin (dosing volume 5 mL/kg). A separate group of animals received 20% hydroxypropyl-β-cyclodextrin alone to serve as the vehicle control group. Three hours after administration, the rats were euthanized with excess CO2. Immediately following euthanasia, CSF was collected from the cisterna magna and quickly frozen on dry ice. Samples were stored at −80° C. until quantification of Aβ40 levels.
The measurement of endogenous rat Aβ40 in CSF relied on the 585 antibody (Ab585, BioSource, NONO585), which specifically recognizes the N-terminal sequence of rodent Aβ40, and on the monoclonal antibody, G2-10, which specifically recognizes the free C-terminus of Aβ40. Ab585 was labeled with biotin (b-Ab585) by first dialyzing the antibody sample extensively versus PBS (pH 7.8) to remove impurities, followed by dilution to between 1 and 2 mg/mL protein concentration. EZ-Link Sulfo-NHS-LC-Biotin (Pierce) was dissolved in PBS (pH 7.8) at a concentration of 1 mg/mL immediately prior to use. Ab585 was labeled with EZ-Link Sulfo-NHS-LC-biotin using a 10:1 biotin:antibody ratio by incubation at room temperature for 1 hour. The labeling reaction was quenched by addition of 1.0 M glycine to a final concentration of 0.1 M followed by 10 minute incubation at room temperature. Glycine was removed by extensive dialysis versus PBS.
For rat CSF Aβ40 determinations, a calibration curve of various concentrations of synthetic rodent Aβ40 was assayed in parallel with rat CSF samples in duplicate using an avidin-coated 96-well MSD plate (Mesoscale Diagnostics). Either 50 μL of rodent Aβ40 standards diluted in PBS (pH 7.4) supplemented with 1% BSA and 1% Tween-20 (standard diluent buffer) or 40 μL of standard diluent buffer plus 10 μL rat CSF were added to each 96 well avidin-coated plate. To each well was added 50 μL of 0.1 M HEPES (pH 7.5), 2% BSA, 2% Tween-20, 0.3 M NaCl (2×Aβ40 buffer) supplemented with the b-Ab585 capture and ruthenylated-G2-10 detection antibodies diluted to 1 μg/mL and 0.5 μg/mL, respectively. Plates were shaken for 1 min on a microplate shaker, covered to protect from light and incubated overnight (˜16 h) at 4° C. For detection, plates were first washed twice with 100 μL of 1×CSF Aβ40 buffer followed by addition of 160 μL of 1×MSD read buffer-T (Mesoscale Diagnostics) diluted in 1×CSF Aβ40 buffer. Plates were read on a MSD Sector Imager 2400 model (Mesoscale Diagnosotics). […]

The target of experiment [1] is soluble human BACE-1 catalytic domain (Homo sapiens (Human), UniProt P56817). As to the kind of experiment: BACE-1 Ki Assay (BACE-1 HTRF FRET Assay). It is filed as biochemical. The note with it: Assay 1; Ki calculated from IC50 by Cheng-Prusoff. The protocol:
Assay 1: BACE-1 Ki Assay (BACE-1 HTRF FRET Assay)
The compounds of the invention were determined to be potent inhibitors of BACE-1 using the following assay.
The following reagents were used in this assay. Na^+-Acetate pH 5.0; 1% Brij-35; Glycerol; Dimethyl Sulfoxide (DMSO); Recombinant human soluble BACE-1 catalytic domain (>95% pure); APP Swedish mutant peptide substrate (QSY7-APP^swe-Eu): QSY7-[…]-Europium-amide.
A homogeneous time-resolved FRET assay can be used to determine IC50 values for inhibitors of the soluble human BACE-1 catalytic domain. This assay monitors the increase of 620 nm fluorescence that resulted from BACE-1 cleavage of an APPswedish APP^swe mutant peptide FRET substrate (QSY7-[…]-Europium-amide). This substrate contains an N-terminal QSY7 moiety that serves as a quencher of the C-terminal Europium fluorophore (620 nm Em). In the absence of enzyme activity, 620 nm fluorescence is low in the assay and increased linearly over 3 hours in the presence of uninhibited BACE-1 enzyme. Inhibition of BACE-1 cleavage of the QSY7-APP^swe-Eu substrate by inhibitors is manifested as a suppression of 620 nm fluorescence.
Varying concentrations of inhibitors at 3× the final desired concentration in a volume of […] are preincubated with purified human BACE-1 catalytic domain (3 nM in 10 μl) for 30 minutes at 30° C. in reaction buffer containing 20 mM Na-Acetate pH 5.0, 10% glycerol, 0.1% Brij-35 and 7.5% DSMO. Reactions are initiated by addition of 10 μl of 600 nM QSY7-APP^swe-Eu substrate (200 nM final) to give a final reaction volume of 30 μl in a 384 well Nunc HTRF plate. The reactions are incubated at 30° C. for 1.5 hours. The 620 nm fluorescence is then read on a Rubystar HTRF plate reader (BMG Labtechnologies) using a […] delay followed by a 400 millisecond acquisition time window. Inhibitor IC50 values are derived from non-linear regression analysis of concentration response curves. Ki values are then calculated from IC50 values using the Cheng-Prusoff equation using a previously determined […] of 8 μM for the QSY7-APP^swe-Eu substrate at BACE-1. The example compounds of the invention were measured in this assay.

For experiment [2], the target named is purified human autoBACE-2 (Homo sapiens (Human), UniProt Q9Y5Z0). Briefly: BACE-2 Assay (BACE-HTRF assay). It is filed as biochemical. To be noted: Assay 2; Ki calculated from IC50 by Cheng-Prusoff; read-out: BACE2 Ki. As for the experimental part:
The compounds of the invention were determined to be potent inhibitors of BACE-2 using the following assay. Inhibitor IC50s at purified human autoBACE-2 are determined in a time-resolved endpoint proteolysis assay that measures hydrolysis of the QSY7-[…]-Eu-amide FRET peptide substrate (BACE-HTRF assay). BACE-mediated hydrolysis of this peptide results in an increase in relative fluorescence (RFU) at 620 nm after excitation with 320 nm light Inhibitor compounds, prepared at 3× the desired final concentration in 1×BACE assay buffer (20 mM sodium acetate pH 5.0, 10% glycerol, 0.1% Brij-35) supplemented with 7.5% DMSO are pre-incubated with an equal volume of autoBACE-2 enzyme diluted in 1×BACE assay buffer (final enzyme concentration 1 nM) in black 384-well NUNC plates for 30 minutes at 30° C. […] DMSO is present at […] final concentration in the assay. Following laser excitation of sample wells at 320 nm, the fluorescence signal at 620 nm is collected for 400 ms following a 50 μs delay on a RUBYstar HTRF plate reader (BMG Labtechnologies). Raw RFU data is normalized to maximum (1.0 nM BACE/DMSO) and minimum (no enzyme/DMSO) RFU values. IC50 values are determined by nonlinear regression analysis (sigmoidal dose response, variable slope) of percent inhibition data with minimum and maximum values set to 0 and 100 percent respectively. Similar IC50s are obtained when using raw RFU data. The Ki values are calculated from the IC50 using the Cheng-Prusoff equation.

For experiment [3], the target named is purified human Cathepsin-D (Homo sapiens (Human), UniProt P07339). As to the kind of experiment: Cathepsin-D Assay (time-resolved FRET).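 Also: Europium-labelled peptide substrate with QSY7 quencher, cleavage read as 620 nm fluorescence after 30 min preincubation then 30 min reaction at 30 °C, pH 5.0, inhibition lowers signal.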 It is filed as biochemical. To be noted: Assay 4; Ki calculated from IC50 by Cheng-Prusoff.
purified human Cathepsin-D, sequence (P07339 65-412): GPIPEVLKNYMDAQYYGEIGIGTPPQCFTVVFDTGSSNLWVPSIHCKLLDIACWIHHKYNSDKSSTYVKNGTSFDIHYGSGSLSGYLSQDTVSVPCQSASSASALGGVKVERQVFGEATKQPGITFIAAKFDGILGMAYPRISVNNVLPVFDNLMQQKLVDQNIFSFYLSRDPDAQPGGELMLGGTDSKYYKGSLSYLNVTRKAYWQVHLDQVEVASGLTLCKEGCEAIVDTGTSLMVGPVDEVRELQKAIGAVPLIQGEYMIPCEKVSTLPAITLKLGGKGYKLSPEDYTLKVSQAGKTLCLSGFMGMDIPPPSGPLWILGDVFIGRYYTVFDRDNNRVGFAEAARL
Experimental: Assay 4: Cathepsin-D Assay
This substrate contains an C-terminal QSY7 moiety that serves as a quencher of the N-terminal Europium fluorophore (620 nm Em). In the absence of enzyme activity, 620 nm fluorescence is low in the assay and increased linearly over 1 hour in the presence of uninhibited Cathepsin-D enzyme. Inhibition of Cathespin D cleavage of the Eu-Aspartyl Protease-QSY7 substrate by inhibitors is manifested as a suppression of 620 nm fluorescence.
Varying concentrations of inhibitors in a volume of 100 nl are preincubated with purified human Cathepsin-D (0.1 nM in 10 μl) for 30 minutes at 30° C. in reaction buffer containing 100 mM Na-Acetate pH 5.0, and 0.02% Brij-35. Reactions are initiated by addition of 10 μl of 100 nM Eu-Aspartyl Protease-QSY7 substrate (50 nM final) to give a final reaction volume of 20 μl in a 384 well Nunc HTRF plate. The reactions are incubated at 30° C. for 30 minutes. The 620 nm fluorescence is then read on a Envision Multilabel plate reader (Perkin-Elmer) using a 200 microsecond delay followed by a 400 microsecond acquisition time window. Inhibitor IC50 values are derived from non-linear regression analysis of concentration response curves.

BACE-1, sequence (P56817 46-501): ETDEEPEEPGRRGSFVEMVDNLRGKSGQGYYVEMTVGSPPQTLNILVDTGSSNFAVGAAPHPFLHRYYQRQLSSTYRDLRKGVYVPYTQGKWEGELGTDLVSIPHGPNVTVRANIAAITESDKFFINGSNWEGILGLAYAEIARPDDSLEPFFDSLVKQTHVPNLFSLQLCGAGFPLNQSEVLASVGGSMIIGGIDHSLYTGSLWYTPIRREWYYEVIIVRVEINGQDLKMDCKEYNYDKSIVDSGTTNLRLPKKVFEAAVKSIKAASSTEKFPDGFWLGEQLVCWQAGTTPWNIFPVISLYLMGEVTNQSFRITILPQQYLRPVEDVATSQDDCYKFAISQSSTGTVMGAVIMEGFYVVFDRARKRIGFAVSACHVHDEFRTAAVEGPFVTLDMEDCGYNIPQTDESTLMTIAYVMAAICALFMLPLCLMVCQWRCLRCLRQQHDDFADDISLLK
purified human autoBACE-2, sequence (Q9Y5Z0 63-466): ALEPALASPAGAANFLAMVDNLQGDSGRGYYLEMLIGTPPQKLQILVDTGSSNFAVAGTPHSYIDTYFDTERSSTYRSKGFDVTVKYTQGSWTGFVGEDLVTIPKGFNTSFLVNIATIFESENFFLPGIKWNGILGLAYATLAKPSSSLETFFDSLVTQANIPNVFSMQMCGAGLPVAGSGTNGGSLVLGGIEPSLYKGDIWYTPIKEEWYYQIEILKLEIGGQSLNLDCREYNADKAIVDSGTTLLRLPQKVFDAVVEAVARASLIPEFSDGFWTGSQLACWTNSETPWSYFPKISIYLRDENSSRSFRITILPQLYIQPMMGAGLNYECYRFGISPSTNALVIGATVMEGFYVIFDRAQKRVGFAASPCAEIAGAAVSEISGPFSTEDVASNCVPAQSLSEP
soluble human BACE-1 catalytic domain, sequence (P56817 75-416): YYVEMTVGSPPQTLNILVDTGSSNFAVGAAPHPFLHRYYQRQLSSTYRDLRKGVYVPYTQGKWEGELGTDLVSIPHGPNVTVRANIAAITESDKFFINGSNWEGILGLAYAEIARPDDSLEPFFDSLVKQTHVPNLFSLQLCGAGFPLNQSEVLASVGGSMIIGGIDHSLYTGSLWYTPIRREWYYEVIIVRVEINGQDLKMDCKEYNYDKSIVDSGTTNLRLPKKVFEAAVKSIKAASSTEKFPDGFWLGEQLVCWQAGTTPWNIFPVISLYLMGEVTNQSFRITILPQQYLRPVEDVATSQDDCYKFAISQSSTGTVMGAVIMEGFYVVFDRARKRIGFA

What is called IC50 is the midpoint of a concentration-inhibition curve. `COc1cnc2c(Nc3cc([C@]4(C)CS(=O)(=O)[C@@](C)(C5CC5)C(N)=N4)c(F)cn3)ccnc2n1` [Example 35, (3R,6S)-5-amino-6-cyclopropyl-3-(5-fluoro-2-((3-methoxypyrido[2,3-b]pyrazin-8-yl)amino)pyridin-4-yl)-3,6-dimethyl-3,6-dihydro-2H-1,4-thiazine 1,1-dioxide]: the IC50 against BACE-1 was determined as 10 nM. The “Aβ reduction in vivo in rat (Δ% CSF Aβ40 @ 10 mpk)” value with CSF Aβ40 is on record as −75%.

Compound `COc1cnc2c(Nc3ccc(F)c([C@]4(C)CS(=O)(=O)[C@@](C)(C5CC5)C(N)=N4)c3)ccnc2c1` [Example 36, (3R,6S)-5-amino-6-cyclopropyl-3-(2-fluoro-5-((7-methoxy-1,5-naphthyridin-4-yl)amino)phenyl)-3,6-dimethyl-3,6-dihydro-2H-1,4-thiazine 1,1-dioxide] showed an IC50 against BACE-1 of 3.5 nM. The “Aβ reduction in vivo in rat (Δ% CSF Aβ40 @ 10 mpk)” value with CSF Aβ40 is reported as −67%.

Usually Ki stands for a dissociation constant, usually derived from enzyme kinetics or from competition with a known ligand. In the case of `C[C@@]1(c2cc(Nc3ncnc4cc(Br)cnc34)ncc2F)CS(=O)(=O)[C@@](C)(C2CC2)C(N)=N1` [Example 38, (3R,6S)-5-amino-3-(2-((7-bromopyrido[3,2-d]pyrimidin-4-yl)amino)-5-fluoropyridin-4-yl)-6-cyclopropyl-3,6-dimethyl-3,6-dihydro-2H-1,4-thiazine 1,1-dioxide], the Ki in experiment [1] is 8.2 nM; in experiment [2] it was 3.8 nM; in experiment [3], 3200 nM. Besides, half-maximal inhibition against BACE-1 (IC50) required 110 nM.

(Values after US9732088B2, “C2-carbocyclic iminothiazine dioxides as BACE inhibitors, compositions, and their use” (Merck Sharp & Dohme Corp., priority 2014, dated 2017).)
